For data set [1], the system named is SW620 (colorectal adenocarcinoma, metastatic). The experiment in a line: MTT proliferation assay, SW620. Particulars: Homo sapiens, SW-620, 72 h. The class given is cell-based. As to the method: (§1) Human tumor cell lines HeLa (cervical carcinoma), SW620 (colorectal adenocarcinoma, metastatic), A549 (lung adenocarcinoma), MCF−7 (breast adenocarcinoma), CFPAC-1 (pancreatic adenocarcinoma, metastatic), HCT-116 (colorectal carcinoma), and HepG2 (hepatocellular carcinoma), and normal cell lines HFF-1 (foreskin fibroblasts) and WI-38 (immortalized human lung fibroblast), were from the US American Type Culture Collection (ATCC, Manassas, VA, USA). Cells were cultured in a liquid nutrient medium (Dulbecco’s Modified Eagle Medium, LONZA, Basel, Switzerland) supplemented with 10% fetal bovine serum (FBS, Gibco, Grand Island, NY, USA), 2 mM L-glutamine (GIBCO, Grand Island, NY, USA), 100 μg/mL penicillin, and 100 μg/mL streptomycin (LONZA, Basel, Switzerland), in an incubator (NÜVE, Ankara, Turkey), at a humid atmosphere with 5% CO2 at 37 °C. Trypsin/EDTA Solution (Lonza, Basel, Switzerland), was used for cell passaging and cell detachment.
(§2) Adherent cells were seeded on 96 well microtiter plates (Falcon, New York, NY, USA) at a seeding density of 5000 cells per well, added in 150 μL of cell suspension in a nutrient medium. 24 h after seeding, cells were treated with compound 4b–4g, 4i, 4k–4t, 4v, 7c–7g, and 7i–7q dilutions in the range of 0.01 μM to 100 μM. L-ascoric acid (Sigma Aldrich, Darmstadt, Germany) and Carboxyamidotriazole (Sigma Aldrich, Darmstadt, Germany) were used as control compounds. Incubation of the cells with the compounds were performed for 72 h in a 5% CO2, in humid atmosphere at 37 °C. After incubation, nutrient medium was removed and 40 μL of the MTT reagent ([…]-2,5-diphenyltetrazole bromide (Invitrogen, Carlsbad, CA, USA) was added to each well. 3 h after incubation, 160 μL of DMSO (VWR CHEMICALS, Radnor, PA, USA) were added to each well to dissolve the crystals of purple formazane. The absorbance was measured at 570 nm (TECAN SUNRISE Microtiter plate reader (Männedorf, Switzerland). The experimentally measured optical densities (OD) were converted to the PG (percentage of growth), using the formulas according to the protocol assumed by NIH (National Institute of Health). The IC50 values (concentration causing 50% cell growth inhibition) for each compound were calculated by regression analysis of the survival count curve of the concentrations of the tested compounds. The results were processed in Excel 2010 (Microsoft, Redmond, WA, USA).
In general terms: Tetrazolium assays rely on reduction of a dye to a coloured formazan, in cell work by metabolically active cells.

For data set [2], the system named is HepG2 (hepatocellular carcinoma). The experiment in a line: MTT proliferation assay, HepG2. Format: cell-based. Particulars: Homo sapiens, 72 h. As to the method: as §1, §2
Data set [3] relates to WI-38 (lung fibroblasts). Description: MTT proliferation assay, WI-38. Particulars: Homo sapiens, 72 h, normal lung fibroblasts. Format: cell-based. As to the method:
as §1, §2

In data set [4] the test system is HeLa (cervical carcinoma). The experiment in a line: MTT proliferation assay, HeLa. Format: cell-based. Particulars: Homo sapiens, 72 h. As to the method: as §1, §2
The test system of data set [5] is CFPAC-1 (ductal pancreatic adenocarcinoma). The experiment in a line: MTT proliferation assay, CFPAC-1. Particulars: Homo sapiens, 72 h. The class given is cell-based. The procedure: as §1, §2
The subject of data set [6] is A549 (lung adenocarcinoma). The experiment in a line: MTT proliferation assay, A549. The class given is cell-based. Particulars: Homo sapiens, 72 h. The procedure:
as §1, §2

Data set [7] deals with HCT-116 (colorectal carcinoma). Description: MTT proliferation assay, HCT-116. Format: cell-based. Particulars: Homo sapiens, 72 h. As to the method:
as §1, §2

Data set [8] deals with HFF-1 (foreskin fibroblasts). The experiment in a line: MTT proliferation assay, HFF-1. The class given is cell-based. Particulars: Homo sapiens, 72 h, normal foreskin fibroblasts. The procedure: as §1, §2
Data set [9] relates to MCF-7 (breast adenocarcinoma). Description: MTT proliferation assay, MCF-7. Format: cell-based, Human. Particulars: Homo sapiens, MCF7; 72 h, MTT. The procedure:
as §1, §2

The nature of data set [10]: DPPH radical scavenging assay. Format: biochemical. The procedure: Likewise, L-ASA, the 1,2,3-triazole L-ASA derivatives with free C2-OH and C3-OH groups were expected to be potent antioxidants. Therefore, they were tested as radical scavengers by reaction with the stable free radical 2,2-diphenyl-1-picrylhydrazyl (DPPH^•).
Antioxidant capacity of selected compounds was assessed by 2,2-diphenyl-1-picrylhydrazyl assay (DPPH, Sigma Aldrich, Darmstadt, Germany), in which the antioxidant activity of compounds is measured by the reaction between a stable radical of 1,1-diphenyl-2-picylhydrazil (DPPH^•) and a selected compound according to the manufacturer recommendations. Briefly, compounds 4b–4e, 4f–4h, 4k, 4l, 4o, 4p–4s, 4t, 4v, 7c–7f, 7i–7n, 7q, 7p, and 7o were tested at 0.06, 0.12, 0.18, 0.23, 0.25, and 0.28 mM. L-ascorbic acid was used as the reference compound. Absorbance was measured 5 and 10 min after incubation of the compounds with the DPPH reagent. The reduction of DPPH with selected compounds was monitored by measuring the absorbance at a wavelength of 517 nm on the monochromator (Infinite M200 PRO, TECAN, Männedorf, Switzerland).
On the technique in general: DPPH is a stable violet radical that fades when it is reduced.

Setting [11] is: 5 min treatment, read-out: IC50 of DPPH• inhibition, Treatm. 5 min.
[12] abbreviates: 10 min treatment, read-out: IC50 of DPPH• inhibition, Treatm. 10 min.

Where two headings read alike, the source gives them in different places.

As a reminder, the IC50 is the concentration that inhibits the measured activity by half. By melting point is commonly meant the temperature of the solid-liquid transition. With `O=C1O[C@H]([C@@H](O)Cn2cc(-c3cc(C(F)(F)F)cc(C(F)(F)F)c3)nn2)C(O)=C1O` [Compound 4c, 6-deoxy-6-[4-(3,5-bis(trifluoromethyl)phenyl)-1,2,3-triazol-1-yl]-L-ascorbic acid], the melting point was ≥ 250 °C. The IC50 in [1] was > 100 µM. In addition, the IC50 in data set [2] was > 100 µM. In addition, the IC50 in [3] was > 100 µM. The 50% inhibitory concentration (IC50) in [4] was > 100 µM. Moreover, the IC50 in data set [5] was > 100 µM. Also, in data set [6], the half-maximal inhibitory concentration (IC50) was > 100 µM. Further, in [7], the IC50 was > 100 µM. For the same compound, the IC50 in data set [8] was > 100 µM. Further, in data set [9], the half-inhibitory concentration (IC50) is > 100 µM. In addition, the IC50 in data set [10] (setting [11]) was 260 ± 20 µM. In addition, the IC50 in [10] (setting [12]) turned out to be 250 µM.

`O=C1O[C@H]([C@@H](O)Cn2cc(-c3ccccc3O)nn2)C(O)=C1O` [Compound 4i, 6-deoxy-6-[2-hydroxyphenyl-1,2,3-triazol-1-yl]-L-ascorbic acid] gave a melting point of 129 to 131 °C. For the same compound, the 50% inhibitory concentration (IC50) in [1] was > 100 µM. For the same compound, the half-maximal inhibitory concentration (IC50) in data set [2] is > 100 µM. For the same compound, the IC50 in data set [3] was > 100 µM. Moreover, the IC50 in data set [4] is > 100 µM. For the same compound, the IC50 in data set [5] is > 100 µM. Besides, in data set [6], the IC50 is > 100 µM. The IC50 in data set [7] is > 100 µM. The IC50 in data set [8] is 0.92 µM. The IC50 in data set [9] was > 100 µM. The IC50 in data set [10] (setting [11]) was > 280 µM. For the same compound, in data set [10] (setting [12]), the half-maximal inhibitory concentration (IC50) was > 280 µM.

For `CCCCCCCCCCc1cn(C/C=C2\OC(=O)C(O)=C2O)nn1` [Compound 7n, 6-(4-decyl-1,2,3-triazol-1-il)-4,5-didehydro-5,6-dideoxy-L-ascorbic acid], the melting point lay in the range of 169 to 171 °C. Further, in data set [1], the IC50 was > 100 µM. Besides, the IC50 in data set [2] was > 100 µM. Moreover, in data set [3], the IC50 is > 100 µM. Moreover, the IC50 in data set [4] was > 100 µM. In addition, the concentration for half-maximal inhibition (IC50) in data set [5] was > 100 µM. Also, the IC50 in data set [6] is > 100 µM. The IC50 in [7] was > 100 µM. Moreover, the IC50 in data set [9] was > 100 µM. The IC50 in data set [10] (setting [11]) stood at 140 µM. In addition, the IC50 in data set [10] (setting [12]) amounted to 100 µM.

As to `CC(C)(C)c1cn(C/C=C2\OC(=O)C(O)=C2O)nn1` [Compound 7o, 6-[4-tert-butyl-1,2,3-triazole-1-yl]-4,5-didehydro-5,6-dideoxy-L-ascorbic acid], the melting point lay in the range of 182 to 184 °C. Further, the IC50 in [1] is > 100 µM. Further, in [2], the IC50 is > 100 µM. In data set [3], the 50% inhibitory concentration (IC50) was > 100 µM. Further, in data set [4], the concentration for half-maximal inhibition (IC50) was > 100 µM. Also, the IC50 in data set [5] is > 100 µM. Also, the IC50 in data set [6] was > 100 µM. Besides, the IC50 in data set [7] is > 100 µM. In data set [9], the IC50 was > 100 µM. In [10] (setting [11]), the IC50 amounted to 200 µM. Further, in data set [10] (setting [12]), the IC50 amounted to 200 µM.

`O=C1O/C(=C\Cn2cc(CCCCl)nn2)C(O)=C1O` [Compound 7p, 6-[4-chloropropyl-1,2,3-triazole-1-yl]-4,5-didehydro-5,6-dideoxy-L-ascorbic acid] returned a melting point of 160 to 162 °C. Further, the IC50 in [1] is > 100 µM. The IC50 in data set [2] is > 100 µM. Further, the IC50 in data set [3] is > 100 µM. Also, in data set [4], the IC50 is > 100 µM. Further, the IC50 in [5] was > 100 µM. Also, the IC50 in data set [6] is > 100 µM. Moreover, the IC50 in data set [7] was > 100 µM. Further, the IC50 in data set [9] was > 100 µM. The IC50 in data set [10] (setting [11]) came to 200 µM. The IC50 in [10] (setting [12]) came out at 200 µM.

In turn, `O=C1O/C(=C\Cn2cc(CCO)nn2)C(O)=C1O` [Compound 7q, 6-[4-(2-hydroxyethyl)-1,2,3-triazole-1-yl]-4,5-didehydro-5,6-dideoxy-L-ascorbic cid] showed a melting point of 172 to 173 °C. Further, in data set [1], the IC50 is > 100 µM. The IC50 in data set [2] was > 100 µM. The IC50 in data set [3] is > 100 µM. Moreover, the IC50 in [4] is > 100 µM. For the same compound, in data set [5], the IC50 is > 100 µM. For the same compound, the IC50 in data set [6] is > 100 µM. In addition, the half-maximal inhibitory concentration (IC50) in [7] was > 100 µM. In addition, the IC50 in data set [9] is > 100 µM. Further, the 50% inhibitory concentration (IC50) in data set [10] (setting [11]) turned out to be 70 µM. The IC50 in data set [10] (setting [12]) stood at 70 µM.
